Data taken from ChEMBL document CHEMBL4665822, “Structure-Guided Optimization of Dipeptidyl Inhibitors of Norovirus 3CL Protease” (J Med Chem, 2020).

Tests used:
[1] = Cytotoxicity against human HG23 cells assessed as reduction cell viability after 48 hrs by CytoTox 96 nonradioactive assay; assay type: cell-based
Norovirus = experiment: Antiviral activity against Norovirus replicon infected in human HG23 cells assessed as reduction in viral RNA level after 48 hrs by qRT-PCR analysis; assay type: functional, cell-based; details: HG23, 48 h
[2] = Inhibition of Norovirus 3CL protease using Edans-DFHLQ/GPDabcyl preincubated for 30 mins followed by substrate addition and measured after 1 hr by FRET assay

| Structure (SMILES) | EC50 (Norovirus) [nM] | IC50 [2] [nM] | CC50 at 48 h [1] [nM] |
| --- | --- | --- | --- |
| CC(=O)OC([C@H](C[C@@H]1CCNC1=O)NC(=O)[C@H](CC(C)C)NC(=O)OCC(C)(C)c1cccc(Cl)c1)S(=O)(=O)O (some centres not stated) | 450 | 130 | > 100000 |
| CC(C)C[C@H](NC(=O)OCCCc1ccccc1)C(=O)N[C@@H](C[C@@H]1CCNC1=O)C(O)S(=O)(=O)O (some centres not stated) | 850 | 600 | > 100000 |
| CC(=O)OC([C@H](C[C@@H]1CCNC1=O)NC(=O)[C@H](CC1CCCCC1)NC(=O)OCC(C)(C)c1cccc(Cl)c1)S(=O)(=O)O (some centres not stated) | 150 | 90 | 67000 |
| O=C[C@H](C[C@@H]1CCNC1=O)NC(=O)[C@H](CC1CCCCC1)NC(=O)OCCCc1cccc(Cl)c1 | 80 |  | 30300 |
| CC(C)(COC(=O)N[C@@H](CC1CCCCC1)C(=O)N[C@@H](C[C@@H]1CCNC1=O)C(O)S(=O)(=O)O)c1ccccc1 (some centres not stated) | 500 | 320 | 83900 |
| CCCCCC(=O)OC([C@H](C[C@@H]1CCNC1=O)NC(=O)[C@H](CC1CCCCC1)NC(=O)OCC(C)(C)Cc1cccc(Cl)c1)S(=O)(=O)O (some centres not stated) | 80 |  | 20700 |
| CC(C)C[C@H](NC(=O)OCC(C)(C)c1cccc(Cl)c1)C(=O)N[C@@H](C[C@@H]1CCNC1=O)C(O)S(=O)(=O)O (some centres not stated) | 190 | 300 | > 100000 |
| O=C[C@H](C[C@@H]1CCNC1=O)NC(=O)[C@H](CC1CCCCC1)NC(=O)OC/C=C/c1cccc(Cl)c1 | 60 | 140 | 24100 |
| CC(C)(Cc1cccc(Cl)c1)OC(=O)N[C@@H](CC1CCCCC1)C(=O)N[C@@H](C[C@@H]1CCNC1=O)C(O)S(=O)(=O)O (some centres not stated) | 2900 | 6800 | 20400 |
| CC(C)(COC(=O)N[C@@H](CC1CCCCC1)C(=O)N[C@H](C=O)C[C@@H]1CCNC1=O)c1ccccc1 | 600 | 450 | 80100 |
| O=C(N[C@@H](CC1CCCCC1)C(=O)N[C@@H](C[C@@H]1CCNC1=O)C(O)S(=O)(=O)O)OC1(c2cccc(Cl)c2)CC1 (some centres not stated) | 180 | 270 | 42300 |
| CCC(=O)OC([C@H](C[C@@H]1CCNC1=O)NC(=O)[C@H](CC1CCCCC1)NC(=O)OCC(C)(C)c1cccc(Cl)c1)S(=O)(=O)O (some centres not stated) | 220 | 70 | 70500 |
| CC(C)(COC(=O)N[C@@H](CC1CCCCC1)C(=O)N[C@@H](C[C@@H]1CCNC1=O)C(O)S(=O)(=O)O)Cc1cccc(Cl)c1 (some centres not stated) | 70 | 140 | 16200 |
| CC(C)(OC(=O)N[C@@H](CC1CCCCC1)C(=O)N[C@H](C=O)C[C@@H]1CCNC1=O)c1cccc(Cl)c1 | 3700 | 2900 | > 100000 |
| CC(C)C[C@H](NC(=O)OC/C=C/c1cccc(Cl)c1)C(=O)N[C@H](C=O)C[C@@H]1CCNC1=O | 80 | 150 | > 100000 |
| CC(C)(COC(=O)N[C@@H](CC1CCCCC1)C(=O)N[C@H](C=O)C[C@@H]1CCNC1=O)Cc1cccc(Cl)c1 | 60 | 110 | 14100 |
| CC(C)C[C@H](NC(=O)OC(C)(C)Cc1cccc(Cl)c1)C(=O)N[C@H](C=O)C[C@@H]1CCNC1=O | 900 | 1200 | > 100000 |
| CC(C)C[C@H](NC(=O)OCCCc1cccc(Cl)c1)C(=O)N[C@H](C=O)C[C@@H]1CCNC1=O | 160 | 260 | > 100000 |
| CC(C)C[C@H](NC(=O)OCC(C)(C)c1ccccc1)C(=O)N[C@H](C=O)C[C@@H]1CCNC1=O | 650 | 450 | > 100000 |

Continued by falling EC50 (Norovirus), values first:

| EC50 (Norovirus) [nM] | IC50 [2] [nM] | Structure (SMILES) | CC50 at 48 h [1] [nM] |
| --- | --- | --- | --- |
| 5400 | 7700 | CC(C)(Cc1cccc(Cl)c1)OC(=O)N[C@@H](CC1CCCCC1)C(=O)N[C@H](C=O)C[C@@H]1CCNC1=O | 15600 |
| 3500 | 3800 | CC(C)C[C@H](NC(=O)OC(C)(C)c1cccc(Cl)c1)C(=O)N[C@H](C=O)C[C@@H]1CCNC1=O | > 100000 |
| 2900 | 2700 | CC(C)(OC(=O)N[C@@H](CC1CCCCC1)C(=O)N[C@@H](C[C@@H]1CCNC1=O)C(O)S(=O)(=O)O)c1cccc(Cl)c1 (some centres not stated) | > 100000 |
| 1800 | 3300 | CC(C)C[C@H](NC(=O)OC(C)(C)c1cccc(Cl)c1)C(=O)N[C@@H](C[C@@H]1CCNC1=O)C(O)S(=O)(=O)O (some centres not stated) | > 100000 |
| 770 | 750 | CC(C)C[C@H](NC(=O)OCCCc1ccccc1)C(=O)N[C@H](C=O)C[C@@H]1CCNC1=O | > 100000 |
| 700 | 1000 | CC(C)C[C@H](NC(=O)OC(C)(C)Cc1cccc(Cl)c1)C(=O)N[C@@H](C[C@@H]1CCNC1=O)C(O)S(=O)(=O)O (some centres not stated) | > 100000 |
| 650 | 280 | CC(C)C[C@H](NC(=O)OC1(c2cccc(Cl)c2)CC1)C(=O)N[C@H](C=O)C[C@@H]1CCNC1=O | > 100000 |
| 550 | 250 | CC(C)C[C@H](NC(=O)OC1(c2cccc(Cl)c2)CC1)C(=O)N[C@@H](C[C@@H]1CCNC1=O)C(O)S(=O)(=O)O (some centres not stated) | > 100000 |
| 450 | 400 | CC(C)C[C@H](NC(=O)OCC(C)(C)c1ccccc1)C(=O)N[C@@H](C[C@@H]1CCNC1=O)C(O)S(=O)(=O)O (some centres not stated) | > 100000 |
| 250 | 280 | O=C[C@H](C[C@@H]1CCNC1=O)NC(=O)[C@H](CC1CCCCC1)NC(=O)OC1(c2cccc(Cl)c2)CC1 | 36500 |
| 170 | 270 | CC(C)C[C@H](NC(=O)OCC(C)(C)c1cccc(Cl)c1)C(=O)N[C@H](C=O)C[C@@H]1CCNC1=O | > 100000 |
| 100 | 340 | CCC(=O)OC([C@H](C[C@@H]1CCNC1=O)NC(=O)[C@H](CC1CCCCC1)NC(=O)OCC(C)(C)Cc1cccc(Cl)c1)S(=O)(=O)O (some centres not stated) | 18400 |
| 90 | 190 | CC(C)C[C@H](NC(=O)OCCCc1cccc(Cl)c1)C(=O)N[C@@H](C[C@@H]1CCNC1=O)C(O)S(=O)(=O)O (some centres not stated) | > 100000 |
| 80 | 110 | CC(C)C[C@H](NC(=O)OC/C=C/c1cccc(Cl)c1)C(=O)N[C@@H](C[C@@H]1CCNC1=O)C(O)S(=O)(=O)O (some centres not stated) | > 100000 |
| 80 | 200 | CC(C)(COC(=O)N[C@@H](CC1CCCCC1)C(=O)N[C@@H](C[C@@H]1CCNC1=O)C(O)S(=O)(=O)O)c1cccc(Cl)c1 (some centres not stated) | 14300 |
| 70 | 160 | O=C(N[C@@H](CC1CCCCC1)C(=O)N[C@@H](C[C@@H]1CCNC1=O)C(O)S(=O)(=O)O)OC/C=C/c1cccc(Cl)c1 (some centres not stated) | 28300 |
| 70 | 230 | CC(C)(COC(=O)N[C@@H](CC1CCCCC1)C(=O)N[C@H](C=O)C[C@@H]1CCNC1=O)c1cccc(Cl)c1 | 13300 |
| 60 |  | O=C(N[C@@H](CC1CCCCC1)C(=O)N[C@@H](C[C@@H]1CCNC1=O)C(O)S(=O)(=O)O)OCCCc1cccc(Cl)c1 (some centres not stated) |  |
